Data taken from paper PMC4266362 (Journal of Medicinal Chemistry, 2014).

Tests used:
[1] = target: glucagon receptor (GR) (Homo sapiens, UniProt P47871); test: duplexed calcium mobilization assay, glucagon receptor; assay type: cell-based; conditions: EC20 of glucagon
[2] = in vivo rat pharmacokinetics; conditions: male, Sprague-Dawley, plasma
[3] = tested on: primary mouse islets; test: glucose-stimulated insulin secretion, static islet incubation; assay type: cell-based
[4] = target: human GLP-1R (Homo sapiens, UniProt P43220); test: calcium mobilization PAM assay in human GLP-1R 9-3-H cells; assay type: cell-based
[5] = liver microsome predicted hepatic clearance, rat; assay type: in vitro ADME; conditions: well-stirred model
[6] = tested on: 68 GPCRs, ion channels, and transporters; test: Eurofin radioligand binding panel; conditions: 10 μM, 68 targets
[7] = in vivo rat brain distribution; conditions: Sprague-Dawley, intraperitoneal, 10 mg/kg
[8] = tested on: rats; test: spontaneous locomotor activity; assay type: in vivo; conditions: rat, 10–30 mg/kg i.p.
[9] = target: melanocortin 4 receptor (MC4R) (Homo sapiens, UniProt P32245); test: counter-screen against melanocortin 4 receptor; assay type: cell-based
melanocortin 4 receptor (MC4R), sequence (P32245 whole entry, species assumed): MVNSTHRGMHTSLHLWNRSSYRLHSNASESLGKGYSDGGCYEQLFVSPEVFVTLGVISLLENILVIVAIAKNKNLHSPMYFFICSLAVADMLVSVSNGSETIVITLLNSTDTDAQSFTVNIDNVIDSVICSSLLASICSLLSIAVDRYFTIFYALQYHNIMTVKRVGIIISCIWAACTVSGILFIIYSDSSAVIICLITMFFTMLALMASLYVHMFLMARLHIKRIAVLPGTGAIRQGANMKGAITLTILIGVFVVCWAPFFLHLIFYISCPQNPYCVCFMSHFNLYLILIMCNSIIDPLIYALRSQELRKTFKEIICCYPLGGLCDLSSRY

glucagon receptor (GR), sequence (P47871 26-477, species assumed): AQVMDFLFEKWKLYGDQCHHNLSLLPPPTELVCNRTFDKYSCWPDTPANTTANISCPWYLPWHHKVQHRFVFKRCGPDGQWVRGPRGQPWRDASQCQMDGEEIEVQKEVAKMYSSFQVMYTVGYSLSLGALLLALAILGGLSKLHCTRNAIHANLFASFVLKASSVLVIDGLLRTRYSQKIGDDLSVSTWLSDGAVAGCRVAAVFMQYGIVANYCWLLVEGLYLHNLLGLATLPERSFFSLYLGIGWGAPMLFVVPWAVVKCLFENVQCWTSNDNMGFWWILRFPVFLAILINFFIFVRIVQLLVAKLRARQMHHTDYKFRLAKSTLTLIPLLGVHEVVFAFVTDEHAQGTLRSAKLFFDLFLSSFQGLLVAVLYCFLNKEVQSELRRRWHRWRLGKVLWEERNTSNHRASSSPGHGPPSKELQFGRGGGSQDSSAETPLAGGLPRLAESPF
human GLP-1R, sequence (P43220 24-463): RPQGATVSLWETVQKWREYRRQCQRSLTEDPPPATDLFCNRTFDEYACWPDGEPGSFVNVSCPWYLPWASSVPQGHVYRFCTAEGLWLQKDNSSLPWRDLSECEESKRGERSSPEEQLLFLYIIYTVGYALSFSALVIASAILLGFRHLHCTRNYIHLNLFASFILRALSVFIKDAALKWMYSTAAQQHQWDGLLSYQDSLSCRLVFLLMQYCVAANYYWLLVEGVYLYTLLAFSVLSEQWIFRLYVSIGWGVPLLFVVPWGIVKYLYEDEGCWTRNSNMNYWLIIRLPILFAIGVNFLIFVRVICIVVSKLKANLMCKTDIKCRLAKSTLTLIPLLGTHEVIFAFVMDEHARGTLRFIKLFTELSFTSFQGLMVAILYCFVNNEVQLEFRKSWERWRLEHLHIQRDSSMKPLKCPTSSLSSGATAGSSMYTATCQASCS

| Compound | activity at GR [1] | clearance [2] [mL/min/kg] | potentiation of glucose-stimulated insulin secretion ([3]; primary mouse islets, in the presence of 2) [fold] | calcium response in the absence of GLP-1 ([4]; compound alone) | rat CLHEP [5] [mL/min/kg] | highest inhibition in radioligand binding panel [6] [%] | Tmax [7] [min] | half-life ([2]; intravenous, 1 mg/kg) [min] | effect on insulin secretion ([3]; 30 μM, in presence of 10 nM 1, low (5.6 mM) and high (11 mM) glucose, 60 min) | effect on spontaneous locomotor activity [8] | GLP-1R PAM activity / mode (pure PAM or ago-PAM) ([4]; calcium mobilization) | activity at MC4R [9] |
| --- | --- | --- | --- | --- | --- | --- | --- | --- | --- | --- | --- | --- |
| CCN1CCC[C@H]1CNC(=O)c1cn(C2CCCC2)c(=O)c2c1c1ccccc1n2C [(S)-8] | no effect | 92 | ~1.5 | no calcium response | 69 | – | – | – | – | – | – | – |
| CC(C)N1CCC[C@H]1CNC(=O)c1cn(C2CCCC2)c(=O)c2c1c1ccccc1n2C [(S)-9b, (S)-2-Cyclopentyl-N-((1-isopropylpyrrolidin-2-yl)methyl)-9-methyl-1-oxo-2,9-dihydro-1H-pyrido[3,4-b]indole-4-carboxamide] | – | – | – | – | – | ≤ 50 | 30 | ~60 | significantly increased insulin secretion | no effect on locomotion or sedative effects | ago-PAMs | – |
| CCN1CCCC1CNC(=O)c1cn(C2CCCC2)c(=O)c2c1c1ccccc1n2C (stereo not shown) [compound 8] | inactive | – | – | – | – | – | – | – | – | – | – | inactive |
